In publication PMC10648852, “Molecular drivers of resistance to sulbactam-durlobactam in contemporary clinical isolates of Acinetobacter baumannii” (Antimicrobial Agents and Chemotherapy, 2023):
Values joined by “and” are separate entries in the source; they are usually repeats but may differ in a detail not shown here. Equal values may be shown once. Read-outs that look alike come from different tables or passages of the source.

Key:
[1] = test system: A. baumannii PBP3 S395F; assay: Acylation rate constant (kinact/Ki), fluorescence anisotropy competition with BOCILLIN; conditions: variant data from McLeod et al. (2018)
[2] = test system: A. baumannii PBP3 Q488K; assay: as above; conditions: for k inact/K i: average ± SD
[3] = test system: A. baumannii PBP3 N377Y; assay: as above; conditions: for k inact/K i: average ± SD
[4] = test system: A. baumannii AB5075 and transposon mutants in efflux genes; assay: Broth microdilution MIC, isogenic A. baumannii transposon mutants in efflux genes; type: cell-based; conditions: for In vitro activity (MIC): tested in duplicate; for MIC changes as compared to the parent strain: all tested efflux gene disruptions, AB5075
Experimental: To further assess the role of efflux in SUL-DUR activity against Acinetobacter spp., two panels of A. baumannii isogenic strains were tested. The first consisted of 7 members of an A. baumannii transposon library ([28]) with single gene disruptions in the adeABC, adeIJK, or adeT loci as compared to the parent strain, AB5075. […] This panel of strains consists of four different point mutants in AdeR and five different point mutants in AdeS, which result in the upregulation of AdeABC expression. In addition, this panel contains chromosomal deletions of adeL and adeN, which result in overexpression of AdeFGH and AdeIJK, respectively ([29]).
The parent and each isogenic mutant strain in both panels was measured for susceptibility to sulbactam, durlobactam, SUL-DUR, imipenem, and gentamicin. […].
The AB5075 parent strain as well as transposon interrupted AdeABC, AdeIJK, and AdeT were purchased from the Manoil laboratory at the University of Washington from their arrayed transposon mutant collection ([28]). The KAB1544 parent as well as efflux pump regulator mutants and deletions were constructed as previously described ([29]).
(§1) Antimicrobial susceptibility testing was performed using broth microdilution following standardized methods established by the Clinical Laboratory Standards Institute (CLSI) ([35], [36]). Quality control testing was performed as specified by CLSI using A. baumannii NCTC 13304 ([35]). MIC values were interpreted using CLSI breakpoints for all antimicrobial agents except those for which CLSI breakpoints are not available ([35]). SUL-DUR was tested as twofold dilutions of sulbactam in combination with a fixed concentration of 4 µg/mL durlobactam ([35]).

[5] = test system: A. baumannii PBP3 N392T; assay: Acylation rate constant (kinact/Ki), fluorescence anisotropy competition with BOCILLIN; conditions: for k inact/K i: average ± SD
[6] = test system: A. baumannii PBP3 S390T; assay: as above; conditions: variant data from McLeod et al. (2018)
[7] = test system: A. baumannii PBP3 S395F; design: method as in McLeod et al. (2018); conditions: average ± SD, ref McLeod et al. (2018); cited from earlier work
[8] = test system: A. baumannii PBP3 S390T; design: method as in McLeod et al. (2018); conditions: average ± SD, ref McLeod et al. (2018); cited from earlier work
[9] = test system: A. baumannii PBP3 H370Y; assay: Acylation rate constant (kinact/Ki), fluorescence anisotropy competition with BOCILLIN; conditions: for k inact/K i: average ± SD
[10] = test system: isogenic A. baylyi ADP1 panel encoding wildtype or mutant PBP3; assay: Broth microdilution MIC, isogenic A. baylyi panel (PBP3 variants with or without overexpressed β-lactamases); type: cell-based; conditions: for increase in MIC values in the presence of β-lactamase: wildtype PBP3 strain
Experimental: To understand the effect of PBP3 variants on whole cell activity in the absence of other resistance determinants, the MIC values of sulbactam, SUL-DUR and comparator β-lactams were measured against an isogenic A. baylyi panel engineered to contain individual strains in which the endogenous PBP3 was replaced with the variant of interest.
Each of the A. baylyi panel members were then transformed with plasmids that constitutively expressed five distinct, representative β-lactamases commonly found in Acinetobacter clinical isolates (TEM-1, ADC-30, OXA-23, OXA-24 or OXA-66) and evaluated for changes in antibiotic susceptibility. […] . […] .
The isogenic A. baylyi panel used for chromosomal expression of various PBP3 mutants with or without constitutive expression of various β-lactamases were constructed as part of this study. The A. baylyi ADP1 PBP3 ORF was cloned into pUC19 with a gentamicin cassette inserted downstream of the PBP3 ORF for selection purposes. Additionally, 500 bp of flanking homology to the ADP1 genome were inserted upstream of the PBP3 ORF and downstream of the gentamicin cassette. […] Linear DNA consisting of the 500 bp upstream-PBP3-Gent-500 bp downstream fragment was cloned out of the pUC19 plasmid by PCR and used for transformation of the ADP1 strain. The strain was grown at 30°C overnight in LB medium shaking at 250 rpm. Seventy microliters of the overnight ADP1 culture were combined with 1 mL of fresh LB and 200 ng of linear DNA fragment and incubated for 5 h at 30°C and shaking at 200 rpm. Various dilutions of each culture were plated on LB agar supplemented with 10 µg/mL of gentamicin to select for transformants with successful chromosomal integrations. Integrants were verified by Sanger sequencing using purified genomic DNA.
For the constitutive expression of various β-lactamases, ORFs of bla TEM-1, bla ADC-30, bla OXA-23, bla OXA-24, and bla OXA-66 were cloned by PCR from various clinical strains that encode these genes and inserted into the pWH1266 plasmid modified to encode a kanamycin cassette for selection. These plasmids along with an empty vector were used to transform each of the A. baylyi ADP1 strains engineered above that encode wild-type PBP3 or variants. Transformations were carried out as done above with selection on LB agar supplemented with 20 µg/mL of kanamycin.
as §1

[11] = Acinetobacter baylyi, A. baylyi, PBP3 H370Y, overexpressed ADC-30
[12] = Acinetobacter baylyi, A. baylyi, PBP3 H370Y, overexpressed OXA-23
[13] = Acinetobacter baylyi, A. baylyi, PBP3 H370Y, overexpressed OXA-24
[14] = Acinetobacter baylyi, A. baylyi, PBP3 H370Y, overexpressed OXA-66
[15] = Acinetobacter baylyi, A. baylyi, PBP3 H370Y, overexpressed TEM-1
[16] = Acinetobacter baylyi, A. baylyi, PBP3 H370Y, β-lactamase None (empty vector)
[17] = Acinetobacter baylyi, A. baylyi, PBP3 Wildtype, overexpressed ADC-30, read-out: MIC
[18] = Acinetobacter baylyi, A. baylyi, PBP3 Wildtype, overexpressed OXA-23, read-out: MIC
[19] = Acinetobacter baylyi, A. baylyi, PBP3 Wildtype, overexpressed OXA-24, read-out: MIC
[20] = Acinetobacter baylyi, A. baylyi, PBP3 Wildtype, overexpressed OXA-66, read-out: MIC
[21] = Acinetobacter baylyi, A. baylyi, PBP3 Wildtype, overexpressed TEM-1, read-out: MIC
[22] = Acinetobacter baylyi, A. baylyi, PBP3 Wildtype, β-lactamase None (empty vector), read-out: MIC

Compound	% WT [1] [%]	% WT [2]	k inact/K i [2]	% WT [3]	k inact/K i [3]	% WT [5]	k inact/K i [5]	k inact/K i [7]	k inact/K i [8]	% WT [9]	k inact/K i [9]	MIC [10, 11] [µg/mL]	MIC [10, 12] [µg/mL]	MIC [10, 13] [µg/mL]	MIC [10, 14] [µg/mL]	MIC [10, 15] [µg/mL]	MIC [10, 16] [µg/mL]	MIC [10, 17] [µg/mL]	MIC [10, 18] [µg/mL]	MIC [10, 19] [µg/mL]	also measured
C[C@@H](O)[C@H]1C(=O)N2C(C(=O)O)=C(SCCN=CN)C[C@H]12 [imipenem]	2.0	82.2%	370 ± 20 ([2]) M^-1s^-1	62.2%	280 ± 10 ([2]) M^-1s^-1	175.6%	790 ± 50 ([2]) M^-1s^-1	8.8 ± 0.7 ([3]) M^-1s^-1	540 ± 40 ([3]) M^-1s^-1	106.7%	480 ± 40 ([2]) M^-1s^-1	0.03	4	> 8	0.06	0.03	0.03	0.13	8	8	In vitro activity (MIC) ([4]; Parent (AB5075)): 16 µg/mL; In vitro activity (MIC) ([4]; adeA::tn in AB5075): 8 µg/mL; In vitro activity (MIC) ([4]; adeB::tn in AB5075): 8 µg/mL; In vitro activity (MIC) ([4]; adeC::tn in AB5075): 16 µg/mL; In vitro activity (MIC) ([4]; adeI::tn in AB5075): 16 µg/mL; In vitro activity (MIC) ([4]; adeJ::tn in AB5075): 16 µg/mL; In vitro activity (MIC) ([4]; adeK::tn in AB5075): 16 µg/mL; In vitro activity (MIC) ([4]; adeT::tn in AB5075): 8 µg/mL; MIC changes as compared to the parent strain [4]: ≤ 2 fold; % WT [6]: 120%; MIC [10, 20]: 0.13 µg/mL; MIC [10, 21]: 0.03 µg/mL; MIC [10, 22]: 0.03 µg/mL; increase in MIC values in the presence of β-lactamase ([10]; ADC-30, OXA-23, OXA-24 and OXA-66): ≥ 4 fold
C[C@@H](O)[C@H]1C(=O)N2C(C(=O)O)=C(S[C@@H]3CN[C@H](C(=O)N(C)C)C3)[C@H](C)[C@H]12 [meropenem]	30	78%	3,900 ± 200 ([2]) M^-1s^-1	74%	3,700 ± 300 ([2]) M^-1s^-1	164%	8,200 ± 200 ([2]) M^-1s^-1	1,500 ± 200 ([3]) M^-1s^-1	16,000 ± 6,000 ([3]) M^-1s^-1	120%	6,000 ± 10 ([2]) M^-1s^-1	0.06	8	> 8	0.5	0.06	0.06	0.13	8	> 8	MIC [10, 20]: 1 µg/mL; MIC [10, 21]: 0.13 µg/mL; MIC [10, 22]: 0.06 µg/mL; increase in MIC values in the presence of β-lactamase ([10]; OXA-23, OXA-24 and OXA-66): ≥ 4 fold
CC1(C)[C@H](C(=O)O)N2C(=O)C[C@H]2S1(=O)=O [sulbactam]	4.2	60%–73%	9.9 ± 0.3 ([2]) M^-1s^-1	60%–73%	11 ± 2 ([2]) M^-1s^-1	~ 120%	18 ± 1 ([2]) M^-1s^-1	0.63 ± 0.06 ([3]) M^-1s^-1	0.03 ± 0.02 ([3]) M^-1s^-1	~ 120% and 126%	19 ± 2 ([2]) M^-1s^-1	2	> 64	> 64	4	4	8	2	> 64	16	% WT ([2]; listed as Sulbactam): 66%; % WT ([3]; listed as Sulbactam): 73.3%; In vitro activity (MIC) ([4]; Parent (AB5075)): 64 µg/mL; In vitro activity (MIC) ([4]; adeA::tn in AB5075): 32 µg/mL; In vitro activity (MIC) ([4]; adeB::tn in AB5075): 32 µg/mL; In vitro activity (MIC) ([4]; adeC::tn in AB5075): 64 µg/mL; In vitro activity (MIC) ([4]; adeI::tn in AB5075): 32 µg/mL; In vitro activity (MIC) ([4]; adeJ::tn in AB5075): 64 µg/mL; In vitro activity (MIC) ([4]; adeK::tn in AB5075): 32 µg/mL; In vitro activity (MIC) ([4]; adeT::tn in AB5075): 64 µg/mL; MIC changes as compared to the parent strain [4]: ≤ 2 fold; % WT ([5]; listed as Sulbactam): 120%; % WT [6]: 0.2%; % WT ([9]; listed as Sulbactam): 126.7%; MIC [10, 20]: 8 µg/mL; MIC [10, 21]: 16 µg/mL; MIC [10, 22]: 4 µg/mL; increase in MIC values in the presence of β-lactamase ([10]; TEM-1, OXA-23 and OXA-24): ≥ 4 fold; MIC ([10]; {}): >64 µg/mL
